Test results from patent US20250223268A1, “4-Methylsulfonylbenzamide Compound, Preparation Method, Herbicidal Composition And Use” (Jiangsu Flag Chemical Industry Co., Ltd., priority 2022, published 2025).

Key:
Experiment in all cases: Greenhouse herbicidal activity assay, post-emergence
Format in all cases: in vivo
Cyperus iria = details: Post-emergence test, rate 150 g a.i./hm^2, grade by fresh weight inhibition rate; for pest or weed control at 150 g/ha: Cyperus iria, read-out: Control efficacy grade, Cyperus iria
How it was run: (§1)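 Foliar spray at 3-6 leaves; pot-grown in nutrient soil in growth chamber; air-dried post-spray. Read-out at 14-21 d: fresh weight inhibition, graded A (≥80% to 100%) down to E (<20%); NT = not tested.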

Digitaria sanguinalis = details: Post-emergence test, rate 150 g a.i./hm^2, grade by fresh weight inhibition rate; for pest or weed control at 150 g/ha: Digitaria sanguinalis, read-out: Control efficacy grade, Digitaria sanguinalis
How it was run: as §1

Echinochloa crusgalli = details: Post-emergence test, rate 150 g a.i./hm^2, grade by fresh weight inhibition rate; for pest or weed control at 150 g/ha: Echinochloa crus-galli, read-out: Control efficacy grade, Echinochloa crusgalli
How it was run: as §1

Eclipta prostrata = details: Post-emergence test, rate 150 g a.i./hm^2, grade by fresh weight inhibition rate; for pest or weed control at 150 g/ha: Eclipta prostrata, read-out: Control efficacy grade, Eclipta prostrata
How it was run: as §1

Leptochloa chinensis = details: Post-emergence test, rate 150 g a.i./hm^2, grade by fresh weight inhibition rate; for pest or weed control at 150 g/ha: Dinebra chinensis, read-out: Control efficacy grade, Leptochloa chinensis
How it was run: as §1

| Compound | Control efficacy grade, Cyperus iria (Cyperus iria) | Control efficacy grade, Digitaria sanguinalis (Digitaria sanguinalis) | Control efficacy grade, Echinochloa crusgalli (Echinochloa crusgalli) | Control efficacy grade, Eclipta prostrata (Eclipta prostrata) | Control efficacy grade, Leptochloa chinensis (Leptochloa chinensis) | pest or weed control at 150 g/ha (Cyperus iria) | pest or weed control at 150 g/ha (Digitaria sanguinalis) | pest or weed control at 150 g/ha (Echinochloa crusgalli) | pest or weed control at 150 g/ha (Eclipta prostrata) | pest or weed control at 150 g/ha (Leptochloa chinensis) |
| --- | --- | --- | --- | --- | --- | --- | --- | --- | --- | --- |
| CCCCSc1c(S(C)(=O)=O)ccc(C(=O)Nc2nnc(C)o2)c1Cl [Compound 3-11] | A (Fresh weight inhibition rate≥80% to 100%) | A (Fresh weight inhibition rate≥80% to 100%) | B (Fresh weight inhibition rate≥260% to <80%) | A (Fresh weight inhibition rate≥80% to 100%) | A (Fresh weight inhibition rate≥80% to 100%) |  |  |  |  |  |
| Cc1nnc(NC(=O)c2ccc(S(C)(=O)=O)c(SCC(C)C)c2Cl)o1 [Compound 3-27] | A (Fresh weight inhibition rate≥80% to 100%) | A (Fresh weight inhibition rate≥80% to 100%) | A (Fresh weight inhibition rate≥80% to 100%) | A (Fresh weight inhibition rate≥80% to 100%) | A (Fresh weight inhibition rate≥80% to 100%) |  |  |  |  |  |
| Cc1nnc(NC(=O)c2ccc(S(C)(=O)=O)c(SCC3CC3)c2Cl)o1 [Compound 3-37] | A (Fresh weight inhibition rate≥80% to 100%) | A (Fresh weight inhibition rate≥80% to 100%) | A (Fresh weight inhibition rate≥80% to 100%) | A (Fresh weight inhibition rate≥80% to 100%) | A (Fresh weight inhibition rate≥80% to 100%) |  |  |  |  |  |
| Cc1nnc(NC(=O)c2ccc(S(C)(=O)=O)c(SCCC(C)C)c2Cl)o1 [Compound 3-52] | A (Fresh weight inhibition rate≥80% to 100%) | B (Fresh weight inhibition rate≥260% to <80%) | B (Fresh weight inhibition rate≥260% to <80%) | A (Fresh weight inhibition rate≥80% to 100%) | A (Fresh weight inhibition rate≥80% to 100%) |  |  |  |  |  |
| Cc1nnc(NC(=O)c2ccc(S(C)(=O)=O)c(SC3CC3)c2Cl)o1 [Compound 3-77] | A (Fresh weight inhibition rate≥80% to 100%) | A (Fresh weight inhibition rate≥80% to 100%) | A (Fresh weight inhibition rate≥80% to 100%) | A (Fresh weight inhibition rate≥80% to 100%) | A (Fresh weight inhibition rate≥80% to 100%) |  |  |  |  |  |
| Cc1nnc(NC(=O)c2ccc(S(C)(=O)=O)c(SC3CCC3)c2Cl)o1 [Compound 3-82] | A (Fresh weight inhibition rate≥80% to 100%) | A (Fresh weight inhibition rate≥80% to 100%) | A (Fresh weight inhibition rate≥80% to 100%) | A (Fresh weight inhibition rate≥80% to 100%) | A (Fresh weight inhibition rate≥80% to 100%) |  |  |  |  |  |
| Cc1nnc(NC(=O)c2ccc(S(C)(=O)=O)c(SC3CCCC3)c2Cl)o1 [Compound 3-87] | A (Fresh weight inhibition rate≥80% to 100%) | A (Fresh weight inhibition rate≥80% to 100%) | A (Fresh weight inhibition rate≥80% to 100%) | A (Fresh weight inhibition rate≥80% to 100%) | A (Fresh weight inhibition rate≥80% to 100%) |  |  |  |  |  |
| Cc1nnc(NC(=O)c2ccc(S(C)(=O)=O)c(SCC(F)(F)F)c2Cl)o1 [Compound 3-97] | A (Fresh weight inhibition rate≥80% to 100%) | A (Fresh weight inhibition rate≥80% to 100%) | A (Fresh weight inhibition rate≥80% to 100%) | A (Fresh weight inhibition rate≥80% to 100%) | A (Fresh weight inhibition rate≥80% to 100%) |  |  |  |  |  |
| Cc1nnc(NC(=O)c2ccc(S(C)(=O)=O)c(SCC(F)F)c2Cl)o1 [Compound 3-102] | A (Fresh weight inhibition rate≥80% to 100%) | A (Fresh weight inhibition rate≥80% to 100%) | A (Fresh weight inhibition rate≥80% to 100%) | A (Fresh weight inhibition rate≥80% to 100%) | A (Fresh weight inhibition rate≥80% to 100%) |  |  |  |  |  |
| C=CCSc1c(S(C)(=O)=O)ccc(C(=O)Nc2nnc(C)o2)c1Cl [Compound 3-112] | A (Fresh weight inhibition rate≥80% to 100%) | A (Fresh weight inhibition rate≥80% to 100%) | A (Fresh weight inhibition rate≥80% to 100%) | A (Fresh weight inhibition rate≥80% to 100%) | A (Fresh weight inhibition rate≥80% to 100%) |  |  |  |  |  |
| C=C(C)CSc1c(S(C)(=O)=O)ccc(C(=O)Nc2nnc(C)o2)c1Cl [Compound 3-142] | A (Fresh weight inhibition rate≥80% to 100%) | A (Fresh weight inhibition rate≥80% to 100%) | A (Fresh weight inhibition rate≥80% to 100%) | A (Fresh weight inhibition rate≥80% to 100%) | A (Fresh weight inhibition rate≥80% to 100%) |  |  |  |  |  |
| C#CCSc1c(S(C)(=O)=O)ccc(C(=O)Nc2nnc(C)o2)c1Cl [Compound 3-147] | B (Fresh weight inhibition rate≥260% to <80%) | A (Fresh weight inhibition rate≥80% to 100%) | B (Fresh weight inhibition rate≥260% to <80%) | A (Fresh weight inhibition rate≥80% to 100%) | A (Fresh weight inhibition rate≥80% to 100%) |  |  |  |  |  |
| Cc1nnc(NC(=O)c2ccc(S(C)(=O)=O)c(SCC#N)c2Cl)o1 [Compound 3-192] | A (Fresh weight inhibition rate≥80% to 100%) | A (Fresh weight inhibition rate≥80% to 100%) | A (Fresh weight inhibition rate≥80% to 100%) | A (Fresh weight inhibition rate≥80% to 100%) | A (Fresh weight inhibition rate≥80% to 100%) |  |  |  |  |  |
| Cc1nnc(NC(=O)c2ccc(S(C)(=O)=O)c(SCCC#N)c2Cl)o1 [Compound 3-197] | A (Fresh weight inhibition rate≥80% to 100%) | A (Fresh weight inhibition rate≥80% to 100%) | A (Fresh weight inhibition rate≥80% to 100%) | A (Fresh weight inhibition rate≥80% to 100%) | A (Fresh weight inhibition rate≥80% to 100%) |  |  |  |  |  |
| COCSc1c(S(C)(=O)=O)ccc(C(=O)Nc2nnc(C)o2)c1Cl [Compound 3-262] | A (Fresh weight inhibition rate≥80% to 100%) | A (Fresh weight inhibition rate≥80% to 100%) | A (Fresh weight inhibition rate≥80% to 100%) | A (Fresh weight inhibition rate≥80% to 100%) | A (Fresh weight inhibition rate≥80% to 100%) |  |  |  |  |  |
| CCCSc1c(S(C)(=O)=O)ccc(C(=O)Nc2nnco2)c1Cl [Compound 3-267, 2-chloro-4-(methylsulfonyl)-N-(1,3,4-oxadiazol-2-yl)-3-(propylthio)benzamide] |  |  |  |  |  | 80 to 100% | 80 to 100% | 80 to 100% | 80 to 100% | 80 to 100% |
| CCC[S+]([O-])c1c(S(C)(=O)=O)ccc(C(=O)Nc2nnco2)c1Cl (centres unmarked) [Compound 3-268, 2-chloro-4-(methylsulfonyl)-N-(1,3,4-oxadiazol-2-yl)-3-(propylsulfinyl)benzamide] |  |  |  |  |  | 80 to 100% | 80 to 100% | 80 to 100% | 80 to 100% | 80 to 100% |
| CC(C)Sc1c(S(C)(=O)=O)ccc(C(=O)Nc2nnco2)c1Cl [Compound 3-272] | A (Fresh weight inhibition rate≥80% to 100%) | C (Fresh weight inhibition rate≥40% to <60%) | A (Fresh weight inhibition rate≥80% to 100%) | A (Fresh weight inhibition rate≥80% to 100%) | A (Fresh weight inhibition rate≥80% to 100%) |  |  |  |  |  |
| CCCCSc1c(S(C)(=O)=O)ccc(C(=O)Nc2nnco2)c1Cl [Compound 3-277] | A (Fresh weight inhibition rate≥80% to 100%) | C (Fresh weight inhibition rate≥40% to <60%) | A (Fresh weight inhibition rate≥80% to 100%) | A (Fresh weight inhibition rate≥80% to 100%) | A (Fresh weight inhibition rate≥80% to 100%) |  |  |  |  |  |
